Experimental findings from patent US20180179574A1, “SYSTEMS AND METHODS FOR CHARACTERIZATION OF […]” (The University of Chicago, priority 2015, published 2018) are described below.

One experiment deals with T1, Leukocyte-LpL (Homo sapiens, UniProt P06858).
T1 construct: analyze the activity of endogenous cell-associated LpL from a blood sample; host or cells: primary leukocytes (buffy coat) from fresh whole blood
T1 sequence (P06858 28-475): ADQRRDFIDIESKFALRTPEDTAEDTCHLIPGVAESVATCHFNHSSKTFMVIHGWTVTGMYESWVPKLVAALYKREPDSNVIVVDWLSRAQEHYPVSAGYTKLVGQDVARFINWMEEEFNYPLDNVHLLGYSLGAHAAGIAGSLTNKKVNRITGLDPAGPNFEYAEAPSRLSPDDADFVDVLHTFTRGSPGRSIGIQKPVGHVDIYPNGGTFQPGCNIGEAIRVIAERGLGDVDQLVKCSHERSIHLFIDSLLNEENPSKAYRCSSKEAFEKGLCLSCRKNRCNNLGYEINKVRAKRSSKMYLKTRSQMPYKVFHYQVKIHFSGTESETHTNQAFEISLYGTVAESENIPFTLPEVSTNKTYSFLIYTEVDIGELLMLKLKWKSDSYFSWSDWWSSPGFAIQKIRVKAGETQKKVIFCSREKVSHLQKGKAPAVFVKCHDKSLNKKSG
Kind of experiment: Leukocyte LpL hydrolytic potential / lipase response to stimulation assay (fluorogenic ENZCHEK TG substrate). In kind it is cell-based. The settings on record: leukocytes washed with heparin removing surface LpL. How it is done:
FIG. 6. Leukocyte-LpL activity is detectible and responsive to C-II51-79 and AV199-232 peptide stimulation. Leukocytes (buffy coat) was collected by centrifugation of fresh whole blood from healthy donors (Zen Bio Inc.), rinsed and then incubated with LpL reaction mix (A, B). Leukocytes were also incubated with […] CII51-79 and/or AV199-232 (A). […] Increasing fluorescent plate reader gain can increase sensitivity to low femto molar range (C).
Experiments were conducted during development of embodiments of the present invention using an in vitro assay that utilizes bovine milk LpL (SIGMA) diluted to ˜120 ng/ml in Tris-HCl, 0.15M NaCl (TBS), 1%(w/v) BSA, 0.015%(w/v) Zwittergent 3-14, pH 7.8+1 μM to 25 μM ENZCHEK substrate, prepared in black polypropylene microplates. […] Detection of product is performed with a fluorescent plate reader using excitation/emission wavelengths of 482 nm and 515 nm. The assay is sensitive to fmol/L of LpL (130% gain on reader) (FIG. 6C) and product accumulation increases linearly with increasing enzyme concentrations (FIG. 1A). The absolute product concentration is proportional to the relative fluorescence units (RFU) and can be calculated using BODIPY-C12 fatty acid (D3823, Life Technologies Inc.) as a standard and allows the determination of reaction rates (i.e. ng/ml/min) and Michaelis-Menten kinetic parameters. […]

Another experiment deals with HepG2. Nature of the experiment: Lipase assay with live cells (HepG2), fluorogenic TG substrate. The experiment is classed as cell-based. The note with it: HepG2 cells washed with heparin. How it is done:
FIG. 2. The lipase assay is non-toxic and detects enzyme activity with live cells. The removal of the reaction mix from the cells (HepG2) stops substrate hydrolysis but is reinitiated once added back to the same cells (A).
Experiments were conducted during development of embodiments of the present invention using an in vitro assay that utilizes bovine milk LpL (SIGMA) diluted to ˜120 ng/ml in Tris-HCl, 0.15M NaCl (TBS), 1%(w/v) BSA, 0.015%(w/v) Zwittergent 3-14, pH 7.8+1 μM to 25 μM ENZCHEK substrate, prepared in black polypropylene microplates. In some embodiments, the lipase reaction is performed at room temperature or 37° C. for 10 min to 60 min. Detection of product is performed with a fluorescent plate reader using excitation/emission wavelengths of 482 nm and 515 nm. The assay is sensitive to fmol/L of LpL (130% gain on reader) (FIG. 6C) and product accumulation increases linearly with increasing enzyme concentrations (FIG. 1A). The absolute product concentration is proportional to the relative fluorescence units (RFU) and can be calculated using BODIPY-C12 fatty acid (D3823, Life Technologies Inc.) as a standard and allows the determination of reaction rates (i.e. ng/ml/min) and Michaelis-Menten kinetic parameters. […] Furthermore, the mild nature of the assay formulation allows LpL activity to be determined with live cells in cell culture or isolated cells (FIG. 2).

heparin: on Leukocyte-LpL, the “Leukocyte substrate hydrolysis after washing cells with heparin” value was “substrate hydrolysis was lost”. In addition, the “Substrate hydrolysis by live cells after washing cells with heparin” value in the experiment on HepG2 is “inhibits substrate hydrolysis”.
